Our source for the IC50 values is ChEMBL document CHEMBL1146248, “Cytotoxic small molecule dimers and their inhibitory activity against human breast cancer cells” (Bioorg Med Chem Lett, 2007).

In general, IC50 refers to the concentration at which inhibition is half-maximal. High values mean lower potency, low ones higher potency.

The structures appear in SMILES notation.

The test system of experiment [1] is MCF7. Nature of the experiment: Antiproliferative activity against human estrogen receptor positive MCF7 cells after 72 hrs. Type of experiment: functional, cell-based. Particulars: MCF7, 72 h.
For experiment [2], the system named is SK-BR-3. Nature of the experiment: Antiproliferative activity against human estrogen receptor negative SKBr3 cells overexpressing Her2 after 72 hrs. The class given is functional, cell-based. Particulars: SK-BR-3, 72 h.

For `Cc1c(O)ccc2cc(NC(=O)c3cccc(C(=O)Nc4cc5ccc(O)c(C)c5oc4=O)c3)c(=O)oc12`, the IC50 in experiment [1] and in experiment [2] was > 100 µM in each case. In the case of `Cc1c(O)ccc2cc(NC(=O)c3cccc(C(=O)Nc4cc5ccc(O)c(C)c5oc4=O)n3)c(=O)oc12`, the IC50 in experiment [1] and in experiment [2] was > 100 µM throughout. With `Cc1cc(C)cc(NC(=O)c2cccc(C(=O)Nc3cc(C)cc(C)c3)n2)c1`, the IC50 in experiment [1] and in experiment [2] was > 100 µM throughout. As for `O=C(Nc1ccc(F)c(F)c1)c1cccc(C(=O)Nc2ccc(F)c(F)c2)c1`, the IC50 in experiment [2] was > 100 µM. For `O=C(Nc1ccccc1F)c1ccc(C(=O)Nc2ccccc2F)nc1`, the IC50 in experiment [1] and in experiment [2] was > 100 µM in each case.

In the case of `O=C(Nc1cccc(Cl)c1)c1cccc(C(=O)Nc2cccc(Cl)c2)c1`, the IC50 in experiment [1] is 56.5 µM; in experiment [2] it was > 100 µM. Take `O=C(Nc1cc(F)ccc1F)c1cccc(C(=O)Nc2cc(F)ccc2F)n1`: the 50% inhibitory concentration (IC50) in experiment [1] and in experiment [2] was > 100 µM throughout. With `O=C(Nc1ccc2ccccc2c1)c1ccnc(C(=O)Nc2ccc3ccccc3c2)c1`, the IC50 in experiment [1] was 81.8 µM; in experiment [2], > 100 µM. For the compound `O=C(Nc1ccccc1F)c1ccnc(C(=O)Nc2ccccc2F)c1`, the IC50 in experiment [1] was 40.4 µM; in experiment [2], 87.7 µM. With `O=C(Nc1cc(F)cc(F)c1)c1cccc(C(=O)Nc2cc(F)cc(F)c2)n1`, the half-maximal inhibitory concentration (IC50) in experiment [1] and in experiment [2] was > 100 µM each time.

Consider `O=C(NCCc1ccc2c(c1)OCO2)c1ccc(C(=O)NCCc2ccc3c(c2)OCO3)nc1`, for which the IC50 in experiment [1] and in experiment [2] was > 100 µM throughout. With `O=C(Nc1cc(Cl)cc(Cl)c1)c1ccc(C(=O)Nc2cc(Cl)cc(Cl)c2)c2ccccc12`, the IC50 in experiment [1] and in experiment [2] was > 100 µM in each case. In the case of `COc1cc(NC(=O)c2ccnc(C(=O)Nc3cc(OC)cc(OC)c3)c2)cc(OC)c1`, the IC50 in experiment [1] and in experiment [2] was > 100 µM each time. As for `O=C(Nc1cc(Cl)cc(Cl)c1)c1ccc(C(=O)Nc2cc(Cl)cc(Cl)c2)cc1`, the IC50 in experiment [1] and in experiment [2] was > 100 µM throughout. For the compound `N#Cc1ccc(NC(=O)c2cccc(C(=O)Nc3ccc(C#N)cc3)c2)cc1`, the IC50 in experiment [1] and in experiment [2] was > 100 µM each time. Take `O=C(Nc1cc(F)ccc1F)c1cccc(C(=O)Nc2cc(F)ccc2F)c1`: the IC50 in experiment [1] and in experiment [2] was > 100 µM each time. On to `Cc1c(O)ccc2cc(NC(=O)c3ccnc(C(=O)Nc4cc5ccc(O)c(C)c5oc4=O)c3)c(=O)oc12`, for which the half-inhibitory concentration (IC50) in experiment [1] and in experiment [2] was > 100 µM throughout.

For the compound `CO[C@H]1[C@H](OC(=O)c2ccc(C)[nH]2)[C@H](O)[C@@H](Oc2ccc3c(O)c(NC(=O)c4c[nH]c(C(=O)Nc5c(O)c6ccc(O[C@H]7OC(C)(C)[C@@H](OC)[C@H](OC(=O)c8ccc(C)[nH]8)[C@@H]7O)c(C)c6oc5=O)c4C)c(=O)oc3c2C)OC1(C)C` [COUMERMYCIN A1], the IC50 came out at 6.7 µM in experiment [1] and 3.2 µM in experiment [2]. Take `COc1cc(NC(=O)c2cccc(C(=O)Nc3cc(OC)cc(OC)c3)c2)cc(OC)c1`: the IC50 in experiment [1] and in experiment [2] was > 100 µM throughout. Regarding `O=C(Nc1cc(Cl)cc(Cl)c1)c1cc(Cl)c(C(=O)Nc2cc(Cl)cc(Cl)c2)cc1Cl`, the IC50 in experiment [1] and in experiment [2] was > 100 µM in each case.

Take `Cc1cc(C(=O)Nc2ccc3c(c2)OCCO3)c(C)cc1C(=O)Nc1ccc2c(c1)OCCO2`: the IC50 in experiment [1] and in experiment [2] was > 100 µM each time.

As to `COc1cc(NC(=O)c2ccc(C(=O)Nc3cc(OC)cc(OC)c3)nc2)cc(OC)c1`, the IC50 came to 22.8 µM in experiment [1] and 34.9 µM in experiment [2]. In the same order, the values of `Cc1cc(C)cc(NC(=O)c2ccc(C(=O)Nc3cc(C)cc(C)c3)nc2)c1` are 16.3 µM and 104 µM.

With `O=C(Nc1cc(Cl)cc(Cl)c1)c1cccc(C(=O)Nc2cc(Cl)cc(Cl)c2)c1`, the IC50 in experiment [1] was 2.7 µM; in experiment [2] it was 4.5 µM. As for `O=C(Nc1ccc2c(c1)OCCO2)c1ccc(C(=O)Nc2ccc3c(c2)OCCO3)c2ccccc12`, the IC50 in experiment [1] and in experiment [2] was > 100 µM throughout. In the case of `O=C(Nc1ccc2c(c1)OCCOCCOCCOCCO2)c1ccc(C(=O)Nc2ccc3c(c2)OCCOCCOCCOCCO3)nc1`, the values for the IC50 in experiment [1] and in experiment [2] were 7.2 µM and 4.5 µM, respectively. `COc1cc(NC(=O)c2cccc(C(=O)Nc3cc(OC)cc(OC)c3)n2)cc(OC)c1`: the IC50 was 52.1 µM in experiment [1] and > 100 µM in experiment [2]. With `O=C(Nc1ccccc1F)c1cccc(C(=O)Nc2ccccc2F)c1`, the IC50 in experiment [1] and in experiment [2] was > 100 µM each time. Regarding `O=C(NC1CCCCC1)c1ccc(C(=O)NC2CCCCC2)nc1`, the IC50 in experiment [1] and in experiment [2] was > 100 µM in each case. As to `O=C(Nc1ccc(F)c(F)c1)c1ccc(C(=O)Nc2ccc(F)c(F)c2)nc1`, the IC50 in experiment [1] and in experiment [2] was > 100 µM each time. As for `O=C(CCCCCCC(=O)Nc1cc(Cl)cc(Cl)c1)Nc1cc(Cl)cc(Cl)c1`, the IC50 in experiment [1] and in experiment [2] was > 100 µM each time.

For `O=C(Nc1cc(F)cc(F)c1)c1cccc(C(=O)Nc2cc(F)cc(F)c2)c1`, the IC50 in experiment [1] and in experiment [2] was > 100 µM throughout. Consider `O=C(Nc1ccc2c(c1)OCCO2)c1ccc(C(=O)Nc2ccc3c(c2)OCCO3)cc1`, for which the IC50 in experiment [1] and in experiment [2] was > 100 µM each time. Turning to `O=C(Nc1cc(Cl)cc(Cl)c1)c1cccc(C(=O)Nc2cc(Cl)cc(Cl)c2)n1`, the IC50 was 10.2 µM in experiment [1] and 16.3 µM in experiment [2]. With `Cc1cc(C)cc(NC(=O)c2cccc(C(=O)Nc3cc(C)cc(C)c3)c2)c1`, the IC50 in experiment [1] was found to be 2.1 µM; in experiment [2], 12.2 µM. For the compound `Cc1c(O)ccc2cc(NC(=O)c3ccc(C(=O)Nc4cc5ccc(O)c(C)c5oc4=O)nc3)c(=O)oc12`, the IC50 in experiment [1] and in experiment [2] was > 100 µM each time. In the case of `O=C(Nc1cccc(Cl)c1)c1ccnc(C(=O)Nc2cccc(Cl)c2)c1`, the values for the IC50 in experiment [1] and in experiment [2] were 2.4 µM and 9 µM, respectively. Consider `O=C(Nc1ccc2c(c1)OCCO2)c1cccc(C(=O)Nc2ccc3c(c2)OCCO3)c1`, for which the IC50 in experiment [1] and in experiment [2] was > 100 µM in each case. Consider `O=C(Nc1ccc(O)cc1)c1ccc(C(=O)Nc2ccc(O)cc2)nc1`, for which the IC50 in experiment [1] and in experiment [2] was > 100 µM throughout.

For `O=C(Nc1ccc2c(c1)OCCO2)c1ccnc(C(=O)Nc2ccc3c(c2)OCCO3)c1`, the IC50 in experiment [1] and in experiment [2] was > 100 µM throughout. For `N#Cc1ccc(NC(=O)c2ccnc(C(=O)Nc3ccc(C#N)cc3)c2)cc1`, the IC50 in experiment [1] and in experiment [2] was > 100 µM each time. `O=C(Nc1cccc(Cl)c1)c1ccc(C(=O)Nc2cccc(Cl)c2)nc1`: the IC50 in experiment [1] was 27.3 µM; in experiment [2], 28.3 µM.

Take `O=C(Nc1ccc2c(c1)OCCO2)c1cccc(C(=O)Nc2ccc3c(c2)OCCO3)n1`: the half-maximal inhibitory concentration (IC50) was 27.5 µM in experiment [1] and > 100 µM in experiment [2]. As for `Cc1cc(C(=O)Nc2cc(Cl)cc(Cl)c2)c(C)cc1C(=O)Nc1cc(Cl)cc(Cl)c1`, the IC50 in experiment [1] and in experiment [2] was > 100 µM in each case. Turning to `O=C(Nc1ccc(F)c(F)c1)c1cccc(C(=O)Nc2ccc(F)c(F)c2)n1`, the IC50 in experiment [1] and in experiment [2] was > 100 µM each time. As for `O=C(Nc1ccc(Cl)cc1O)c1ccc(C(=O)Nc2ccc(Cl)cc2O)nc1`, the IC50 in experiment [1] and in experiment [2] was > 100 µM throughout.

On to `O=C(Nc1ccc2ccccc2c1)c1cccc(C(=O)Nc2ccc3ccccc3c2)c1`, for which the IC50 in experiment [1] is 4.6 µM; in experiment [2], 15.2 µM. For the compound `O=C(Nc1cc(F)ccc1F)c1ccnc(C(=O)Nc2cc(F)ccc2F)c1`, the IC50 in experiment [1] and in experiment [2] was > 100 µM throughout. For `O=C(NCc1ccc2c(c1)OCO2)c1ccc(C(=O)NCc2ccc3c(c2)OCO3)nc1`, the IC50 in experiment [1] and in experiment [2] was > 100 µM each time. For `O=C(Nc1cc(F)ccc1F)c1ccc(C(=O)Nc2cc(F)ccc2F)nc1`, the IC50 in experiment [1] and in experiment [2] was > 100 µM each time. With `O=C(CCCCCCC(=O)Nc1ccc2c(c1)OCCO2)Nc1ccc2c(c1)OCCO2`, the IC50 in experiment [1] and in experiment [2] was > 100 µM throughout. For `O=C(Nc1cc(Cl)cc(Cl)c1)c1ccc(C(=O)Nc2cc(Cl)cc(Cl)c2)nc1`, the IC50 came out at 4.1 µM in experiment [1] and 2.3 µM in experiment [2].

As for `O=C(Nc1ccc2c(c1)OCCO2)c1cc(Cl)c(C(=O)Nc2ccc3c(c2)OCCO3)cc1Cl`, the concentration for half-maximal inhibition (IC50) in experiment [1] and in experiment [2] was > 100 µM in each case. In the case of `O=C(Nc1ccc2c(c1)OCCO2)c1cnc(C(=O)Nc2ccc3c(c2)OCCO3)cn1`, the IC50 in experiment [1] and in experiment [2] was > 100 µM in each case.

As to `O=C(Nc1ccc2c(c1)OCO2)c1ccc(C(=O)Nc2ccc3c(c2)OCO3)nc1`, the IC50 in experiment [1] and in experiment [2] was > 100 µM in each case. `O=C(Nc1ccccc1O)c1ccc(C(=O)Nc2ccccc2O)nc1`: the IC50 in experiment [1] and in experiment [2] was > 100 µM throughout. As for `O=C(Nc1ccc(F)c(F)c1)c1ccnc(C(=O)Nc2ccc(F)c(F)c2)c1`, the IC50 in experiment [1] and in experiment [2] was > 100 µM each time.

`O=C(Nc1cc(F)cc(F)c1)c1ccc(C(=O)Nc2cc(F)cc(F)c2)nc1`: the IC50 in experiment [1] and in experiment [2] was > 100 µM throughout.

For `O=C(Nc1ccc2c(c1)OCCO2)c1ccc(C(=O)Nc2ccc3c(c2)OCCO3)nc1`, the IC50 in experiment [1] and in experiment [2] was > 100 µM throughout. In the case of `O=C(Nc1cc(F)cc(F)c1)c1ccnc(C(=O)Nc2cc(F)cc(F)c2)c1`, the IC50 in experiment [1] is 14.7 µM; in experiment [2] it was > 100 µM. For the compound `O=C(Nc1ccc2c(c1)OCCO2)c1ccc(C(=O)Nc2ccc3c(c2)OCCO3)c([N+](=O)[O-])c1`, the IC50 in experiment [1] and in experiment [2] was > 100 µM in each case. In the case of `O=C(Nc1ccc2c(c1)OCCOCCOCCOCCO2)c1cccc(C(=O)Nc2ccc3c(c2)OCCOCCOCCOCCO3)c1`, the IC50 in experiment [1] and in experiment [2] was > 100 µM throughout.

On to `Cc1cc(C)cc(NC(=O)c2ccnc(C(=O)Nc3cc(C)cc(C)c3)c2)c1`, for which the IC50 in experiment [1] and in experiment [2] was > 100 µM each time. For the compound `O=C(Nc1ccc2ccccc2c1)c1ccc(C(=O)Nc2ccc3ccccc3c2)nc1`, the half-inhibitory concentration (IC50) in experiment [1] and in experiment [2] was > 100 µM each time.
